Test results published in US6867207B2, “IL-5 inhibiting 6-azauracil derivatives” (Janssen Pharmaceutica N.V., priority 1997, dated 2005).

Each compound was assayed on IL-5 production (assay: In vitro inhibition of IL-5 production in human blood (phytohemagglutinin-stimulated whole blood, ELISA)). Details: test dose 1×10^−5 M (values marked *), 48 hours, read-out: % inh. (percentage inhibition of IL-5 production), marked with *.
Assay type: cell-based
Method in brief: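 Heparinised blood from healthy male donors, diluted threefold in RPMI 1640, preincubated 60 min at 37° C with compound (0.02% DMSO vehicle), then stimulated with 2 μg/mL phytohemagglutinin for 48 h. Supernatant IL-5 measured by ELISA; percentage inhibition at 1×10^−6 M or 1×10^−5 M.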

| Structure (SMILES) | inhibition at 10 µM [%] |
| --- | --- |
| O=c1cnn(-c2ccc(C(c3ccc(Cl)cc3)N3CCC(O)CC3)c(Cl)c2)c(=O)[nH]1 (racemic) [Compound 119, (±)-2-[3-chloro-4-[(4-chlorophenyl)(4-hydroxy-1-piperidinyl)methyl]phenyl]-1,2,4-triazine-3,5(2H,4H)-dione] | 72 |

Same assay, conditions: test dose 1×10^−6 M, 48 hours

| Structure (SMILES) | % inh. (percentage inhibition of IL-5 production) [%] |
| --- | --- |
| O=c1cnn(-c2cc(Cl)c(C(c3ccc(Cl)cc3)c3nc(-c4ccc(Cl)c(Cl)c4)cs3)c(Cl)c2)c(=O)[nH]1 (racemic) [Comp 28] | 73 |
| Cc1nc(-c2ccc(Cl)cc2)c(C(c2ccc(Cl)cc2)c2ccc(-n3ncc(=O)[nH]c3=O)cc2Cl)s1 (racemic) [Compound 149] | 89 |
| CN(C)c1cccc(-c2nnc(C(c3ccc(Cl)cc3)c3c(Cl)cc(-n4ncc(=O)[nH]c4=O)cc3Cl)o2)c1 (racemic) [Compound 182] | 75 |
| O=c1cnn(-c2cc(Cl)c(C(c3ccc(Cl)cc3)c3ncc(-c4ccccc4)o3)c(Cl)c2)c(=O)[nH]1 (racemic) [Comp 105] | 88 |
| CN(Cc1ccccc1)Cc1sc(C(c2ccc(Cl)cc2)c2c(Cl)cc(-n3ncc(=O)[nH]c3=O)cc2Cl)nc1-c1ccccc1 (racemic) [Comp 297] | 90 |
| O=c1cnn(-c2ccc(C(O)(c3ccc(Cl)cc3)c3cccnc3)c(Cl)c2)c(=O)[nH]1 (stereo not shown) [Comp 117] | 34 |
| COCc1cc(O)nc(SC(c2ccc(Cl)cc2)c2ccc(-n3ncc(=O)[nH]c3=O)cc2Cl)n1 (racemic) [Compound 82] | 19 |
| Cc1nc(-c2ccccc2)c(C(c2ccc(Cl)cc2)c2ccc(-n3ncc(=O)[nH]c3=O)cc2Cl)s1 (racemic) [Compound 134] | 95 |
| O=c1cnn(-c2ccc(C(O)(c3ccc(Cl)cc3)c3nc4ccccc4s3)c(Cl)c2)c(=O)[nH]1 (stereo not shown) [Comp 111] | 61 |
| Cc1sc(-c2cccc(F)c2)nc1C(c1ccc(Cl)cc1)c1c(Cl)cc(-n2ncc(=O)[nH]c2=O)cc1Cl (racemic) [Compound 370] | 76 |
| O=c1cnn(-c2cc(Cl)c(C(SCc3cnccn3)c3ccc(Cl)cc3)c(Cl)c2)c(=O)[nH]1 (racemic) [Compound 407] | 71 |
| O=c1cnn(-c2cc(Cl)c(C(c3ccc(Cl)cc3)c3nc(-c4ccc(-c5ccccc5)cc4)cs3)c(Cl)c2)c(=O)[nH]1 (racemic) [Comp 30] | 57 |
| CCOC(=O)c1sc(C(c2ccc(Cl)cc2)c2c(Cl)cc(-n3ncc(=O)[nH]c3=O)cc2Cl)nc1-c1ccccc1Cl (racemic) [Comp 274] | 89 |
| Nc1cc(N)nc(SC(c2ccc(Cl)cc2)c2ccc(-n3ncc(=O)[nH]c3=O)cc2Cl)n1 (racemic) [Compound 70] | 51 |
| O=C(NCc1sc(C(c2ccc(Cl)cc2)c2c(Cl)cc(-n3ncc(=O)[nH]c3=O)cc2Cl)nc1-c1ccccc1)Nc1ccc(Cl)cc1 (racemic) [Comp 333] | 61 |
| Cn1ccnc1C(c1ccc(Cl)cc1)c1c(Cl)cc(-n2ncc(=O)[nH]c2=O)cc1Cl (racemic) [Comp 109] | 35 |
| Cc1sc(C(C)(c2ccc(Cl)c(Cl)c2)c2c(Cl)cc(-n3ncc(=O)[nH]c3=O)cc2Cl)nc1-c1ccccc1 (racemic) [Comp 233] | 84 |
| COCCNCc1sc(C(c2ccc(Cl)cc2)c2c(Cl)cc(-n3ncc(=O)[nH]c3=O)cc2Cl)nc1-c1ccccc1 (racemic) [Comp 316] | 85 |
| O.O=c1cnn(-c2cc(Cl)c(C(c3ccc(Cl)cc3)c3nnc(-c4ccncc4)o3)c(Cl)c2)c(=O)[nH]1 (racemic) [Compound 158] | 92 |
| Cc1cc(C(C)(c2nc(-c3ccccc3)cs2)c2ccc(-n3ncc(=O)[nH]c3=O)cc2Cl)ccc1Cl (racemic) [Comp 247] | 80 |
| O=c1cnn(-c2cc(Cl)c(C(c3ccc(Cl)cc3)c3nnc(-c4ccccn4)o3)c(Cl)c2)c(=O)[nH]1 (racemic) [Compound 169] | 81 |
| COc1cc(-n2ncc(=O)[nH]c2=O)ccc1C(C)(c1ccc(Cl)c(C(F)(F)F)c1)c1nc(-c2ccccc2)cs1 (racemic) [Comp 255] | 67 |

| Structure (SMILES) | % inh. (percentage inhibition of IL-5 production) [%] |
| --- | --- |
| Nc1ccc(SC(c2ccc(Cl)c(C(F)(F)F)c2)c2c(Cl)cc(-n3ncc(=O)[nH]c3=O)cc2Cl)cc1 (stereo not shown) [Compound 393] | 93 |
| O=C(NC(c1ccc(Cl)cc1)c1ccc(-n2ncc(=O)[nH]c2=O)cc1Cl)c1ccccc1 (racemic) [Compound 47, (±)-N-[[2-chloro-4-(4,5-dihydro-3,5-dioxo-1,2,4-triazin-3(2H)-yl)phenyl](4-chlorophenyl)methyl]benzamide] | 33 |
| Cc1nc(C(c2ccc(Cl)cc2)c2c(Cl)cc(-n3ncc(=O)[nH]c3=O)cc2Cl)sc1C (racemic) [Comp 16] | 89 |
| CN1CCN(C(=O)c2sc(C(c3ccc(Cl)cc3)c3c(Cl)cc(-n4ncc(=O)[nH]c4=O)cc3Cl)nc2-c2ccccc2)CC1 (racemic) [Comp 304] | 35 |
| Cc1cc(C)nc(SC(c2ccc(Cl)cc2)c2ccc(-n3ncc(=O)[nH]c3=O)cc2Cl)n1 (racemic) [Compound 66] | 64 |
| Cc1nc(-c2ccccc2Cl)sc1C(c1ccc(Cl)cc1)c1ccc(-n2ncc(=O)[nH]c2=O)cc1Cl (racemic) [Compound 154] | 42 |
| Cc1c(NS(N)(=O)=O)cccc1-c1nnc(C(c2ccc(Cl)cc2)c2c(Cl)cc(-n3ncc(=O)[nH]c3=O)cc2Cl)o1 (racemic) [Compound 218] | 4 |
| CN(C)Cc1csc(C(c2ccc(Cl)cc2)c2c(Cl)cc(-n3ncc(=O)[nH]c3=O)cc2Cl)n1 (racemic) [Comp 240] | 54 |
| CN(C)CCNC(=O)Cc1sc(C(c2ccc(Cl)cc2)c2c(Cl)cc(-n3ncc(=O)[nH]c3=O)cc2Cl)nc1-c1ccccc1 (racemic) [Comp 317] | 67 |
| O=c1cnn(-c2ccc(C(Sc3ccc(F)cc3)c3ccc(Cl)cc3)c(Cl)c2)c(=O)[nH]1 (racemic) [Compound 57] | 50 |
| O=c1cnn(-c2cc(Cl)c(C(c3ccc(Cl)cc3)c3nc(-c4cccc(F)c4)cs3)c(Cl)c2)c(=O)[nH]1 (racemic) [Comp 21] | 91 |
| Cc1cccc(-c2csc(C(c3ccc(Cl)cc3)c3c(Cl)cc(-n4ncc(=O)[nH]c4=O)cc3Cl)n2)c1 (racemic) [Comp 22] | 93 |
| CN1CCC(Nc2ccnc(SC(c3ccc(Cl)cc3)c3c(Cl)cc(-n4ncc(=O)[nH]c4=O)cc3Cl)n2)CC1.Cl.O (racemic) [Compound 354] | 70 |
| CN(C)CCSC(c1ccc(Cl)cc1)c1ccc(-n2ncc(=O)[nH]c2=O)cc1Cl (racemic) [Compound 54] | 14 |
| CCOC(=O)c1csc(C(c2ccc(Cl)cc2)c2c(Cl)cc(-n3ncc(=O)[nH]c3=O)cc2Cl)n1 (racemic) [Comp 27] | 64 |
| CC(c1ccc(Cl)c(Cl)c1)(c1nc(-c2ccccc2)cs1)c1c(Cl)cc(-n2ncc(=O)[nH]c2=O)cc1Cl (racemic) [Comp 227] | 78 |
| O=c1cnn(-c2ccc(C(C3=C(c4ccccc4)SC4=NCCN43)c3ccc(Cl)cc3)c(Cl)c2)c(=O)[nH]1 (stereo not shown) [Comp 433] | 53 |
| Cc1cc(-n2ncc(=O)[nH]c2=O)cc(C)c1C(c1ccc(Cl)c(Cl)c1)c1nc(-c2ccccc2)c(C)s1 (racemic) [Comp 271] | 88 |
| O=c1cnn(-c2cc(Cl)c(C(c3ccc(Cl)cc3)c3sc(-c4ccccc4)nc3-c3ccccc3Cl)c(Cl)c2)c(=O)[nH]1 (racemic) [Compound 145] | 37 |
| O=c1cnn(-c2cc(Cl)c(C(c3ccc(Cl)cc3)c3nc(-c4ccccc4)c(C4CCCCC4)s3)c(Cl)c2)c(=O)[nH]1 (racemic) [Comp 284] | 91 |
| O=c1cnn(-c2cc(Cl)c(C(Sc3nc4ccccc4s3)c3ccc(Cl)c(C(F)(F)F)c3)c(Cl)c2)c(=O)[nH]1 (stereo not shown) [Compound 385] | 95 |
| COc1cc(C(c2nc(-c3ccccc3)cs2)c2c(Cl)cc(-n3ncc(=O)[nH]c3=O)cc2Cl)ccc1Cl (racemic) [Comp 289] | 96 |

Same assay, conditions: test dose 1×10^−6 M, 48 hours, read-out: % inh. (percentage inhibition of IL-5 production)

| Structure (SMILES) | inhibition at 1 µM [%] |
| --- | --- |
| O=c1cnn(-c2ccc(C(NCCO)c3ccc(Cl)cc3)c(Cl)c2)c(=O)[nH]1 (racemic) [Compound 51, (±)-2-[3-chloro-4-[(4-chlorophenyl)[(2-hydroxyethyl)amino]methyl]phenyl]-1,2,4-triazin-3,5(2H,4H)-dione] | 10 |
| CN1CCN(C(c2ccc(Cl)cc2)c2ccc(-n3ncc(=O)[nH]c3=O)cc2Cl)CC1 (racemic) [Compound 118, (±)-2-[3-chloro-4-[(4-chlorophenyl)(4-methyl-1-piperazinyl)methyl]phenyl]-1,2,4-triazine-3,5(2H,4H)-dione] | 34 |
| CCNC(CSC(c1ccc(Cl)cc1)c1ccc(-n2ncc(=O)[nH]c2=O)cc1Cl)C(=O)O (racemic) [Compound 95, (±)-ethyl α-[[[(4-chlorophenyl)[2-chloro-4-(4,5-dihydro-3,5-dioxo-1,2,4-triazin-2(3H)-yl)phenyl]methyl]thio]methyl]glycine] | 17 |
| O=c1cnn(-c2cc(Cl)c(C(c3ccc(Cl)cc3)c3nccs3)c(Cl)c2)c(=O)[nH]1 (racemic) [Compound 39, (±)-2-[3,5-dichloro-4-[(4-chlorophenyl)-2-thiazolylmethyl]-phenyl]-1,2,4-triazine-3,5(2H,4H)-dione] | 68 |
